According to PubChem BioAssay (NCI):
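Each compound was tested at five concentrations against cells in 96-well plates for 48 hours. GI50: concentration for 50% inhibition of growth. At the TGI there is no net growth.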

Tests used:
Test in all cases: DTP human tumour cell line panel, 48 h
[1] = system: M14 melanoma
[2] = system: SF-539 CNS
[3] = system: HCT-116 colon
[4] = system: SN12C renal
[5] = system: MDA-MB-435
[6] = system: MALME-3M melanoma
[7] = system: A498 renal
[8] = system: A549 NSCLC
[9] = system: MDA-MB-468 breast
[10] = system: KM12 colon
[11] = system: OVCAR-4 ovarian
[12] = system: DU-145 prostate
[13] = system: NCI/ADR-RES ovarian
[14] = system: SK-MEL-2 melanoma
[15] = system: SK-OV-3 ovarian
[16] = system: OVCAR-5 ovarian
[17] = system: SW-620 colon
[18] = system: T-47D breast
[19] = system: HOP-92 NSCLC
[20] = system: RXF 393 renal
[21] = system: NCI-H522 lung
[22] = system: HL-60(TB) leukemia
[23] = system: HT29 colon
[24] = system: SF-268 CNS
[25] = system: MCF7 breast
[26] = system: NCI-H23 lung
[27] = system: CCRF-CEM leukemia
[28] = system: NCI-H226 lung
[29] = system: SNB-75 CNS
[30] = system: RPMI-8226 leukemia
[31] = system: HS 578T breast
[32] = system: 786-0 renal
[33] = system: SK-MEL-5 melanoma
[34] = system: SK-MEL-28 melanoma
[35] = system: HCC-2998 colon
[36] = system: UACC-257 melanoma
[37] = system: TK-10 renal
[38] = system: HOP-62 NSCLC
[39] = system: SNB-19 CNS
[40] = system: U251 CNS
[41] = system: BT-549 breast
[42] = system: EKVX NSCLC
[43] = system: OVCAR-3 ovarian
[44] = system: NCI-H460 lung
[45] = system: HCT-15 colon
[46] = system: ACHN renal
[47] = system: OVCAR-8 ovarian
[48] = system: COLO 205 colon
[49] = system: MOLT-4 leukemia
[50] = system: UACC-62 melanoma
[51] = system: LOX IMVI melanoma
[52] = system: SF-295 CNS
[53] = system: CAKI-1 renal
[54] = system: IGROV1 ovarian
[55] = system: K-562 leukemia
[56] = system: PC-3 prostate

`O=C(c1ccccc1)n1ccc(-c2cc3cc(Br)ccc3oc2=O)n1` showed a GI50 [1] of 3.94 µM, a TGI [1] of 24 µM and a GI50 [2] of 7.44 µM. The TGI [2] was 67.3 µM, the GI50 [3] was 3.52 µM and the TGI [3] was > 100 µM. The GI50 [4] was 6.28 µM, the TGI [4] was > 100 µM and the GI50 [5] was 14.7 µM. For the same molecule, the TGI [5] was > 100 µM, the GI50 [6] was 5.9 µM and the TGI [6] was > 100 µM. The GI50 [7] was > 100 µM, the TGI [7] was > 100 µM and the GI50 [8] was 12.6 µM. The TGI [8] was > 100 µM, the GI50 [9] was 3.6 µM and the TGI [9] was 25.2 µM. For the same molecule, the GI50 [10] was 4.45 µM, the TGI [10] was > 100 µM and the GI50 [11] was 4.56 µM. The TGI [11] was > 100 µM, the GI50 [12] was 8.9 µM and the TGI [12] was > 100 µM. The GI50 [13] was 4.13 µM, the TGI [13] was 81.3 µM and the GI50 [14] was 5.6 µM. It also gave a TGI [14] of 74.7 µM, a GI50 [15] of 6.08 µM and a TGI [15] of 62.5 µM. The GI50 [16] was 13.9 µM, the TGI [16] was > 100 µM and the GI50 [17] was 5.15 µM. The TGI [17] was > 100 µM, the GI50 [18] was 6.22 µM and the TGI [18] was 70.9 µM. The GI50 [19] was 0.545 µM, the TGI [19] was > 100 µM and the GI50 [20] was 6.18 µM. The TGI [20] was > 100 µM, the GI50 [21] was 3.36 µM and the TGI [21] was 17 µM. The GI50 [22] was 2.09 µM, the TGI [22] was 5.49 µM and the GI50 [23] was 16.5 µM. The TGI [23] was > 100 µM, the GI50 [24] was 4.29 µM and the TGI [24] was > 100 µM. The GI50 [25] was 2.74 µM, the TGI [25] was > 100 µM and the GI50 [26] was 5.87 µM. For the same molecule, the TGI [26] was > 100 µM, the GI50 [27] was 1.52 µM and the TGI [27] was 15.6 µM. For the same molecule, the GI50 [28] was 7.23 µM, the TGI [28] was 62.1 µM and the GI50 [29] was 7.09 µM. The TGI [29] was > 100 µM, the GI50 [30] was 3.8 µM and the TGI [30] was > 100 µM. The GI50 [31] was 17.5 µM, the TGI [31] was > 100 µM and the GI50 [32] was 3.99 µM. The TGI [32] was > 100 µM, the GI50 [33] was 4.14 µM and the TGI [33] was 23.6 µM. The GI50 [34] was 6.05 µM, the TGI [34] was > 100 µM and the GI50 [35] was 5.29 µM. The TGI [35] was > 100 µM, the GI50 [36] was 4 µM and the TGI [36] was 30.2 µM. The GI50 [37] was 47.5 µM, the TGI [37] was > 100 µM and the GI50 [38] was 3.48 µM. For the same molecule, the TGI [38] was > 100 µM, the GI50 [39] was 9.97 µM and the TGI [39] was > 100 µM. For the same molecule, the GI50 [40] was 4.82 µM, the TGI [40] was > 100 µM and the GI50 [41] was 5.18 µM. For the same molecule, the TGI [41] was 78 µM, the GI50 [42] was 2.7 µM and the TGI [42] was > 100 µM. The GI50 [43] was 2.06 µM, the TGI [43] was > 100 µM and the GI50 [44] was 3.78 µM. The TGI [44] was > 100 µM, the GI50 [45] was 2.88 µM and the TGI [45] was > 100 µM. The GI50 [46] was 3.94 µM, the TGI [46] was > 100 µM and the GI50 [47] was 2.73 µM. The TGI [47] was 51.6 µM, the GI50 [48] was 19.1 µM and the TGI [48] was 73.6 µM. For the same molecule, the GI50 [49] was 3.32 µM, the TGI [49] was 9.55 µM and the GI50 [50] was 3.55 µM. The TGI [50] was 22.9 µM, the GI50 [51] was 2.8 µM and the TGI [51] was 90.9 µM. For the same molecule, the GI50 [52] was 8.91 µM, the TGI [52] was > 100 µM and the GI50 [53] was 4.16 µM. The TGI [53] was > 100 µM, the GI50 [54] was 5.48 µM and the TGI [54] was > 100 µM. For the same molecule, the GI50 [55] was 3.59 µM, the TGI [55] was > 100 µM and the GI50 [56] was 4.05 µM. For the same molecule, the TGI [56] was > 100 µM.
